In paper PMC4280898, “Diazido Mixed-Amine Platinum(IV) Anticancer Complexes Activatable by Visible-Light Form Novel DNA Adducts” (Chemistry (Weinheim an Der Bergstrasse, Germany), 2013):
Read-outs that look alike come from different tables or passages of the source.

How the values were obtained:
[1] = test system: A2780 cells; conditions: cited from earlier work
[2] = test system: A2780cis cells; conditions: cited from earlier work; for Resistance factor: A2780cis vs A2780
[3] = test system: A2780 cells; experiment: SRB proliferation assay for non-light-sensitive complexes, A2780; format: cell-based, human; conditions: ambient light, 24 h exposure, 72 h recovery
Experimental: (§1) Cytotoxicity of platinum(II) precursors: To investigate the relationship between the Pt^IV diazidodihydroxido complexes and their Pt^II dichlorido analogues trans-[PtCl2(Am1)(Am2)] (where Am=amine), the cytotoxicities of complexes trans-[PtCl2(MA)(Py)] (5) and trans-[PtCl2(MA)(Tz)] (6) towards A2780 and its cisplatin resistant sub-line A2780cis were determined. The toxicity was not photoinduced, as the complexes are not photoactive. Complexes 5 and 6 are highly cytotoxic towards A2780 and A2780cis cells compared to the reported trans-Pt^II compounds.[18]–[22] Complex 5 is about three-times more cytotoxic than complex 6 towards A2780 cells. […]
(§2) Cell Culture and Proliferation Assay for Non-light-sensitive Complexes
(§3) The A2780 ovarian cell line was obtained from the ECACC (European Collection of Animal Cell Culture, Salisbury, United Kingdom). The cells were maintained in RPMI 1640 media, which was supplemented with 10% foetal calf serum, 1% L-glutamine, and 1% penicillin/streptomycin. All cells were grown at 310 K in an humidified atmosphere containing 5% CO2. Stock solutions of the Pt complexes were freshly prepared in DMSO to assist dissolution and then diluted into saline and medium (maximum final concentration of DMSO 1% and saline 6%). After plating 5000 A2780 cells per well on day 1, Pt complexes were added to the cancer cells on day 3 at concentrations ranging from 0.01 to 100 µM, depending on the preliminary activity data obtained in screening assays. Cells were exposed to the complexes for 24 h, washed with PBS, supplied with fresh medium, and allowed to grow for three doubling times (72 h), and then the protein content (proportional to cell survival) was measured using the sulforhodamine B (SRB) assay.[7] The standard errors are based on two independent experiments of three replicates each.[8]

[4] = test system: A2780cis cells; experiment: SRB proliferation assay for non-light-sensitive complexes, A2780cis; format: cell-based, human
Experimental: as §1, §2, §3

[5] = test system: A2780 cells; experiment: Constant challenge proliferation (MTT) assay, A2780; format: cell-based, human; conditions: conventional constant challenge proliferation assay
From the text: (§4) It should be noted that the phototoxicity assay is not a proliferation assay.

[6] = test system: A2780cis cells; experiment: Constant challenge proliferation (MTT) assay, A2780cis; format: cell-based, human; conditions: conventional constant challenge proliferation assay
From the text: as §4

[7] = biological target: T1, HMGB1 protein (Homo sapiens, UniProt P09429); experiment: HMGB1 recognition of platinated 50 bp duplex, gel mobility shift assay; format: binding; conditions: 50 bp duplex modified in the dark
T1 sequence (P09429 1-215): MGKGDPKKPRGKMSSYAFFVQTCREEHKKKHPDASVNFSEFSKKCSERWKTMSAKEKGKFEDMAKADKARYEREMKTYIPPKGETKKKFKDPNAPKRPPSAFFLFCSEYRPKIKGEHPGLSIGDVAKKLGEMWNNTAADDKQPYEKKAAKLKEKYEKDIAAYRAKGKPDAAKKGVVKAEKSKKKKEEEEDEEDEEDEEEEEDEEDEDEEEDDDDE
From the text: HMGB1 protein recognition: The interactions of high mobility group protein B1 (HMGB1) with a 50 bp duplex DNA adducts formed by 1 or 2 under irradiation conditions and 5 or 6 in the dark were investigated using a gel mobility shift assay.
Figure 13 Recognition by HMGB1 protein of platinated DNA. Affinity of full-length HMGB1 to non-modified (control) DNA (lanes 1 and 2) or DNA modified by cisplatin (7) in the dark (lanes 3 and 4), 5 in the dark (lanes 5 and 6), 6 in the dark (lanes 7 and 8), photoactivated 1 (420 nm light, lanes 9 and 10) or photoactivated 2 (420 nm light, lanes 11 and 12). Lanes 1, 3, 5, 7, 9, 11, no protein added; lanes 2, 4, 6, 8, 10, 12, 700 ng HMGB1 added.

[8] = test system: calf thymus DNA; conditions: in the dark; cited from earlier work
[9] = test system: calf thymus DNA; conditions: in the dark; ref 32b; cited from earlier work
[10] = test system: pSP73KB plasmid DNA; conditions: in the dark; ref 32b; cited from earlier work
[11] = test system: pUC19 plasmid DNA; conditions: in the dark; cited from earlier work
[12] = test system: 212 bp NdeI–HpaI fragment of pSP73KB DNA; conditions: in the dark, cited from earlier work
[13] = set-up: method as in earlier work; conditions: 310 K; cited from earlier work
[14] = test system: DNA; set-up: method as in PMID 1827334; conditions: ref 3a; cited from earlier work
[15] = test system: 212 bp NdeI–HpaI fragment of pSP73KB DNA; experiment: Transcription mapping of DNA adducts (T7 RNA polymerase); format: biochemical; conditions: in the dark; rb=0.01
Experimental: Sequence preference of DNA adducts: Transcription mapping experiments were performed to determine the DNA binding sites for Pt complexes. The experiments were carried out using a linear 212 bp DNA fragment (sequence in Figure 9 B), randomly modified by transplatin (8), cisplatin (7), 5 or 6 in the dark or by 1 and 2 photoactivated with blue light (420 nm) at rb=0.01 (rb is defined as the number of the molecules of platinum complex coordinated per nucleotide residue), for RNA synthesis by T7 RNA polymerase (Figure 9 A, lanes 8, 7, 5, 6, 1 and 2, respectively). RNA synthesis on the template modified by the platinum complexes produced fragments of defined sizes (Figure 9 A), which indicate the sites where RNA synthesis was prematurely terminated. It should be noted that RNA synthesis by T7 RNA polymerase is prematurely terminated only due to the platinum adducts on the template strand.[23] […] The ability to bind to A and C sites is consistent with the result from AMP and CMP binding experiments (Figure S18 in the Supporting Information).
Figure 9 Inhibition of RNA synthesis by T7 RNA polymerase on the NdeI–HpaI fragment of pSP73KB plasmid DNA modified by complexes 5 or 6, cisplatin (7) or transplatin (8) in the dark, or with photoactivated 1 or 2 (420 nm light). A) Autoradiogram of a polyacrylamide (6 %)/urea (8 M) sequencing gel. […]
assayed by differential pulse polarography for free, unbound platinum.[16] The amount of platinum bound to DNA was calculated by subtracting the amount of free (unbound) platinum from the total amount of platinum present in the reaction. […]
This fragment contained T7 RNA polymerase promoter (in the upper strand close to its 3'-end). […] The fragments produced in RNA synthesis on the template modified by the platinum complexes were analysed by a 6% polyacrylamide/8M urea sequencing gel.
Quantification of DNA adducts […]
Platinum associated with DNA was assessed by flameless atomic absorption […]
Quantification of DNA interstrand cross-links […]

[16] = biological target: T1, HMGB1 protein; conditions: in the dark; footnote a: taken from literature; cited from earlier work

C1CCNCC1.N.[Cl][Pt][Cl] [trans-[PtCl2(NH3)(piperidine)]]
IC50 [1]: 5 ± 0.7 µM | Resistance factor [2]: 4.0 | IC50 [2]: 20 ± 2 µM

Cc1cc[n+]([Pt@SP2-2]([NH3+])([Cl])[Cl])cc1 [trans-[PtCl2(NH3)(4-picoline)]]
IC50 [1]: 7 ± 1 µM | Resistance factor [2]: 11 | IC50 [2]: 80 ± 5 µM

C1CNCCN1.N.[Cl][Pt][Cl] [trans-[PtCl2(NH3)(piperazine)]]
IC50 [1]: 5 ± 1 µM | Resistance factor [2]: 8.8 | IC50 [2]: 44 ± 2 µM

CCC(C)C[NH][Pt]([Cl])[Cl].N (stereo not drawn) [trans-[PtCl2(NH3)(2-methyl-butylamine)]]
IC50 [1]: 1.7 µM | Resistance factor [2]: 5.5 | IC50 [2]: 9.3 µM

N.N.[Cl][Pt][Cl] [Complex 7, cis-[PtCl2(NH3)2]]
IC50 [3]: 1.5 ± 0.3 µM | Resistance factor ([4]; A2780cis vs A2780, SRB assay): 7.0 | IC50 ([4]; ambient light, 24 h exposure, 72 h recovery, SRB): 10.5 ± 0.3 µM | IC50 [5]: 0.5 µM | IC50 [6]: 11 µM | HMGB1 protein recognition [7]: strongly bound by HMGB1 | Pt bound after 24 h [8]: 100[36] % | Bifunctional adducts after 24 h [9]: 97–99[32b] % | Interstrand cross-link [10]: 6[32b] % | Unwinding angle [11]: 13[25] ° | Sequence specificity ([12]; ref 30c, 37): GG, (GA)[30c], [37] | Time for binding to 5′-GMP to reach 50 % [13]: 7 to 8 h | d(ApG) 1,2-intrastrand cross-links, share of all adducts [14]: 20–25% | d(GpG) 1,2-intrastrand cross-links, share of all adducts [14]: 60–65%

CC(C)[NH2+][Pt-2]([Cl])([Cl])[n+]1ccn(C)c1
IC50 [1]: 21 ± 0.6 µM | Resistance factor [2]: 0.66 | IC50 [2]: 14 ± 3.5 µM

COC(C)=N.N.[Cl][Pt][Cl] [trans-[PtCl2(NH3)(HN=C(OCH3)CH3)]]
IC50 [1]: 1.3 ± 0.3 µM | Resistance factor [2]: 5.4 | IC50 [2]: 7 ± 1.3 µM

CCC(C)N.N.[Cl][Pt][Cl] (stereo not drawn) [trans-[PtCl2(NH3)(sec-butylamine)]]
IC50 [1]: 2.1 µM | Resistance factor [2]: 7.4 | IC50 [2]: 15.5 µM

N.N.[Cl][Pt+2][Cl] [Complex 8, transplatin]
Sequence specificity [15]: stop sites mainly at G and C | Pt bound after 24 h [8]: 100[36] % | Bifunctional adducts after 24 h [9]: 50[32b] % | Interstrand cross-link [10]: 12[32b] % | Unwinding angle [11]: 9[25] ° | Sequence specificity ([12]; ref 32b): G, C[32b] | HMGB1 protein recognition [16]: no ^[a] | IC50 [1]: > 200 µM
